Experimental data as given in PubChem BioAssay (NCI).
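Following 48 hours of exposure in 96-well plates, responses at five concentrations were used to interpolate endpoints linearly. GI50 is the concentration that inhibits growth by half. Definition used: TGI = concentration required for complete inhibition of growth.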

Experiments:
Assay in all cases: inhibition of tumour cell growth, NCI panel, 48 h
SNB-19 CNS = system: SNB-19 CNS
MCF7 breast = system: MCF7 breast
OVCAR-5 ovarian = system: OVCAR-5 ovarian
HCT-116 colon = system: HCT-116 colon
SF-295 CNS = system: SF-295 CNS
KM12 colon = system: KM12 colon
NCI-H23 lung = system: NCI-H23 lung
EKVX NSCLC = system: EKVX NSCLC
OVCAR-4 ovarian = system: OVCAR-4 ovarian
SR leukemia = system: SR leukemia
NCI-H522 lung = system: NCI-H522 lung

Row | SMILES | TGI (SNB-19 CNS) [µM] | TGI (MCF7 breast) [µM] | TGI (OVCAR-5 ovarian) [µM] | TGI (HCT-116 colon) [µM] | TGI (SF-295 CNS) [µM] | TGI (KM12 colon) [µM] | TGI (NCI-H23 lung) [µM] | TGI (EKVX NSCLC) [µM] | TGI (OVCAR-4 ovarian) [µM] | TGI (SR leukemia) [µM] | TGI (NCI-H522 lung) [µM] | GI50 (SNB-19 CNS) [nM] | GI50 (MCF7 breast) [nM] | GI50 (OVCAR-5 ovarian) [nM] | GI50 (HCT-116 colon) [nM] | GI50 (SF-295 CNS) [nM] | GI50 (KM12 colon) [nM] | GI50 (NCI-H23 lung) [nM] | GI50 (SR leukemia) [nM] | GI50 (NCI-H522 lung) [nM]
1 | CCOc1ncn(-c2ccc(NC(=S)Nc3cccc(O)c3)cc2)n1 | > 100 | > 100 | > 100 | > 100 | > 100 | > 100 | > 100 | > 100 | > 100 | > 100 | > 100 |  |  |  |  |  |  |  |  | 
2 | ClCCN(CCCl)Cc1ccc(Nc2ccnc3cc(Cl)ccc23)cc1 | 6.73 | 9.34 | 6.66 | > 100 | 6.98 | 5.57 | 4.52 |  |  | 2.78 |  | 1890 | 588 | 2570 | 1560 | 2080 | 2070 | 1330 | 269 | 
3 | COc1ccc(C(=O)C2CC3(CCC2(O)c2ccc(OC)cc2)CC(=O)Nc2ccccc2C3=O)cc1 (stereo not given) |  | > 100 | > 100 | > 100 | > 100 |  | > 100 | > 100 | 39.9 | > 100 |  |  |  |  |  |  |  |  |  | 
4 | CC1(C)CCc2c(cc3c(c2O)CCC(C)(C)O3)O1 | > 100 | > 100 | > 100 | > 100 | > 100 | > 100 | > 100 | > 100 | > 100 | > 100 | > 100 |  |  |  |  |  |  |  |  | 
5 | Cc1ccc(OP2(=O)Oc3ccc4ccccc4c3CN2c2ccc(Cl)cc2)cc1C (stereo not given) | > 100 | > 100 | > 100 | > 100 | > 100 | > 100 | > 100 | > 100 | > 100 |  | > 100 |  |  |  |  |  |  |  |  | 
6 | Nc1cc2c(cc1[N+](=O)[O-])[nH]c1c(-c3ccccc3)nccc12 | 76.7 | > 64.1 | 98.3 | 36 | 53.4 | 35.2 | 39.5 | > 80.5 | 50.6 |  | 27.5 |  |  |  |  |  |  |  |  | 
7 | C=C/C(C)=C/[C@H](C)C(=O)C[C@H](O)CC1CC(=O)NC(=O)C1 | > 94.7 | > 100 | > 100 | > 100 | > 100 | > 100 | > 100 | > 100 | > 100 |  | > 87.8 |  |  |  |  |  |  |  |  | 
8 | COC[C@H]1C(=O)NCC(=O)N2NCCC[C@H]2C(=O)N(O)[C@H](C)C(=O)O[C@@H](C(C)C)[C@H](NC(=O)[C@](C)(O)[C@]2(O)CC[C@@H](CC(C)C)[C@H](C)O2)C(=O)N2NCCC[C@@H]2C(=O)N1O |  |  | 0.0333 |  |  | 0.0241 | 0.0364 |  |  | 0.0555 | 0.0377 |  |  | 15 |  |  | 10 | < 10 | 11.8 | 17.1
9 | CO/C(=N\N=C(/C)C(F)(F)F)c1ccncc1 | > 100 | > 100 | > 100 | > 100 |  | > 100 | > 100 |  | > 100 | > 100 | > 100 |  |  |  |  |  |  |  |  | 
